Assay results taken from the supplement of paper PMC10307832.

Columns and labels:
Assay in all cases: relative viability (nuclei count vs DMSO), 5 days (fraction); higher = more cells survive
5-Fluorouracil = compound: O=c1[nH]cc(F)c(=O)[nH]1 [5-Fluorouracil]
Summary of the method: (§1)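 Only plates meeting two conditions passed: control CV below 25% and at least one doubling. Lung cancer cell lines, kept overnight at 37 °C in 1536-well plates, were pinned with five library-drug doses (not always all listed) √10 apart on vehicle-anchored plates and grown 5 days without medium change. A one-step fix, permeabilisation and Hoechst stain preceded 4× imaging and MetaXpress nuclear counting. Viability equals treated-well nuclei divided by vehicle-well nuclei, as the median over plates.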

Sulindac = compound: CC1=C(CC(=O)O)c2cc(F)ccc2/C1=C\c1ccc([S+](C)[O-])cc1 [Sulindac]
Summary of the method: as §1

Staurosporine = compound: CN[C@@H]1C[C@H]2O[C@@](C)([C@@H]1OC)n1c3ccccc3c3c4c(c5c6ccccc6n2c5c31)C(=O)NC4 [Staurosporine]
Summary of the method: as §1

[1] = compound: CN[C@@H]1C[C@H]2O[C@@](C)([C@@H]1OC)n1c3ccccc3c3c4c(c5c6ccccc6n2c5c31)C(=O)NC4 [Staurosporine] + O=C(CCCCCCC(=O)Nc1ccccc1)NO [Vorinostat] (partner 1 µM)
Summary of the method: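 After 5 days of treatment, lung cancer cells in 1536-well plates were fixed and stained in a single step (final 0.05% Triton X-100, 1% formaldehyde, 1 ug/ml Hoechst) and their nuclei counted on 4× images. Treatment had been applied by pin tool the day after seeding as one drug alone or as a fixed anchor-drug dose with five library-drug doses (not always all listed) in √10 steps. Relative viability is the nuclei count of treated wells divided by that of vehicle wells, and values are medians of duplicate plates.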

UMC-11
relative viability (5-Fluorouracil; 0.02 µM): 0.952
relative viability (5-Fluorouracil; 0.2 µM): 0.783
relative viability (5-Fluorouracil; 0.6325 µM): 0.519
relative viability (Sulindac; 0.08 µM): 1.14
relative viability (Sulindac; 0.253 µM): 1.01
relative viability (Sulindac; 0.8 µM): 0.824
relative viability (Sulindac; 2.53 µM): 0.869
relative viability (Sulindac; 8 µM): 1.11
relative viability (Staurosporine; 0.005 µM): 0.977
relative viability (Staurosporine; 0.01581 µM): 0.328
relative viability (Staurosporine; 0.05 µM): 0.295
relative viability (Staurosporine; 0.1581 µM): 0.123
relative viability (Staurosporine; 0.5 µM): 0.0871
relative viability ([1]; first compound 0.005 µM): 0.343
relative viability ([1]; first compound 0.01581 µM): 0.136
relative viability ([1]; first compound 0.05 µM): 0.0975
relative viability ([1]; first compound 0.1581 µM): 0.0825
relative viability ([1]; first compound 0.5 µM): 0.066
